Measured values reported in publication PMC4804155 (Chembiochem : a European journal of chemical biology, 2015).
Read-outs that look alike come from different tables or passages of the source.

What was measured:
[1] = biological target: T1, MOF (male absent on the first, MYST1, HAT8) (Homo sapiens, UniProt Q9H7Z6, I317A)
T1 sequence (Q9H7Z6 174-447 I317A limits assumed): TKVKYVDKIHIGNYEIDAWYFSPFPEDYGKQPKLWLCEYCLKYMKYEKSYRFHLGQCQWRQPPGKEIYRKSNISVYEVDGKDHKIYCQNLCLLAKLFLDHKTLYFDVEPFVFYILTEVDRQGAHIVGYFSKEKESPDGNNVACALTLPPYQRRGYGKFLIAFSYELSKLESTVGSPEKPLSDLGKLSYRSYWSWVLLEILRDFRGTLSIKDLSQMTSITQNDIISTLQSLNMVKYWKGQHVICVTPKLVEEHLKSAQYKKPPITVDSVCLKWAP

[2] = biological target: MOF (male absent on the first, MYST1, HAT8) (Homo sapiens, UniProt Q9H7Z6)
[3] = biological target: T1, MOF (male absent on the first, MYST1, HAT8); assay: CPM fluorogenic enzyme kinetics, Km; assay type: biochemical

Sequence of MOF (male absent on the first, MYST1, HAT8) (Homo sapiens, UniProt Q9H7Z6) (Q9H7Z6 2-458): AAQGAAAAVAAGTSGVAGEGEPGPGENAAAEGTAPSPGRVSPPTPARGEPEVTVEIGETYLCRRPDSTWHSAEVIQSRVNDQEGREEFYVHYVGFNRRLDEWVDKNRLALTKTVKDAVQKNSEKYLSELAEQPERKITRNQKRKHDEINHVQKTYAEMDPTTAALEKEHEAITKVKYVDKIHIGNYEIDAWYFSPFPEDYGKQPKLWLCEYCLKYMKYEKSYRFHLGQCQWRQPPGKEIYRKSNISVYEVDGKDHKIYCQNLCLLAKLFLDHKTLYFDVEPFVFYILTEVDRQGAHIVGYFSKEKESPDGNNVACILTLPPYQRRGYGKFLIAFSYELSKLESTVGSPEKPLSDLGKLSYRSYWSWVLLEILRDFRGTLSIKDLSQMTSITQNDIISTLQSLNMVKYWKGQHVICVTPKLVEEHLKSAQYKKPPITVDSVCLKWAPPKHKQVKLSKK

Row | Km [1] | Km [2] | SMILES | Km [3]
1 | 3.5 ± 0.2 µM | 1.3 ± 0.1 µM | CC(=O)SCCNC(=O)CCNC(=O)[C@H](O)C(C)(C)COP(=O)(O)OP(=O)(O)OC[C@H]1O[C@@H](n2cnc3c(N)ncnc32)[C@H](O)[C@@H]1OP(=O)(O)O [acetyl-CoA] | –
2 | – | – | CC(C)(COP(=O)(O)OP(=O)(O)OC[C@H]1O[C@@H](n2cnc3c(N)ncnc32)[C@H](O)[C@@H]1OP(=O)(O)O)[C@@H](O)C(=O)NCCC(=O)NCCSC(=O)CCN=[N+]=[N-] [3-azidopropanoyl CoA] | 2.7 ± 0.2 µM
